From PMC6941952, “A homogeneous bioluminescent immunoassay to probe cellular signaling pathway regulation” (Communications Biology, 2020)
Several values for one entry are separate records, joined by “and”; a condition that tells them apart may be missing. Equal entries are not always repeated.

System: phospho-IκBα (Ser32)
Assay: NanoBiT cell-based immunoassay, phosphorylated IκBα in MCF-7 cells
Set-up: species or system human
Description: Prior to NanoBiT Cell-Based Immunoassay, 50,000 cells were seeded in 160 µl of complete growth media per well of a 96-well plate and incubated overnight. The cells were checked under microscope and it was determined that 50,000 cells per well in 96-well plate is under 90% confluency for all cells tested. If necessary, the cell culture media were replaced with serum-free media after the cells were stably adherent on the plate and incubated overnight. To treat cells with activators or inhibitors, medium was changed to 30 µl of medium containing inhibitors. If activation of a specific pathway is needed, the cells were stimulated with 10 µl of medium containing activators. To lyse the cells, 10 µl of lysis buffer containing 0.1% digitonin diluted in 1X immunoassay buffer with protease and phosphatase inhibitors was added and the plates were mixed vigorously for 20 min. Then, 50 µl of an antibody mix containing two primary antibodies against the target protein and NanoBiT detecting antibodies (0.3 µl each per well), diluted in 1X immunoassay buffer was added to the lysates. The plates were incubated at 23 °C for 90 min, followed by the addition of 25 µl of Nano-Glo® reagent consisting of Nano-Glo® Luciferase Assay Substrate mixed with 1X immunoassay buffer. Luminescence was measured using a plate-reading luminometer.
In all, 50,000 MCF-7 cells were seeded in 160 µl complete growth medium per well of a 96-well plate and incubated overnight. Half of the cells were treated with 50 ng per ml TNFα and half with vehicle. Cells were lysed as described above and a mixture of NanoBiT secondary antibodies with primary antibodies at the matrix concentrations described in Fig. 2a were added. After 90 min incubation, the Nano-Glo® reagent was added to the reactions as described above and luminescence was measured using a plate-reading luminometer.
Single dose or dose response inhibitor treatments were performed prior to activation of the pathways as follows. For IκBα, the cells were treated in 30 µl medium with IKK16 or MG132 for 60 min before the addition of 10 µl of DMEM containing appropriate concentration of TNFα. To measure phosphorylation of AKT or STAT3, the corresponding NanoBiT immunoassays were developed with MCF-7 or A431 cells, respectively, according the same scheme used to develop the IκBα assay using the primary antibodies for AKT and STAT3 described in the reagents section. For the AKT assay, MCF-7 cells were incubated overnight in phenol-red free DMEM medium (Gibco #21063-029) without serum. Treatment with LY294002 was performed in 30 µl medium and cells were incubated for 60 min before the addition of 1 µM Insulin. To measure STAT3 phosphorylation, A431 cells were incubated overnight in DMEM medium without serum. […] After addition of the stimulators, the cells were incubated for additional times as follows. IκBα phosphorylation and degradation analyses required both time courses and single time points as described in figures. […] The NanoBiT immunoassay protocol was followed as described above.
All 96-well assay plates were read using a GloMax® 96 Microplate Luminometer from Promega. The instrument was set to 0.5 s integration time. In order to obtain net change of signal, the reagent background values (signal from the well containing all reagent except primary antibodies) were subtracted from the sample values. To plot and analyze the data, Microsoft Excel and GraphPad Prism® Software were used. IC50 values were determined by using a nonlinear regression fit to a sigmoidal dose response (variable slope).

## O=C(c1ccc(Nc2nccc(-c3cc4ccccc4s3)n2)cc1)N1CCC(N2CCCC2)CC1 [IKK16]
Figure 3a and 3b
  P-IkB Raw data: 17490 and 17630 and 17730
  P-IkB Subtract reagent background: 280 and 420 and 520
Figure 3a and 3b, background subtracted
  P-IkB Average: 407
MCF-7 cells, 10 µM 1 h, TNFα 50 ng per ml 10 min
  TNFα-induced phosphorylation of IκBα on serine 32: suppressed
